# Values quoted from earlier work, collected in US7183293B2, “Ether derivatives useful as inhibitors of PDE4 isozymes” (Pfizer Inc., priority 2001, dated 2007).
# Assays:
# [1] = system: mean pulmonary artery pressure; settings: oral administration, clinical conditions
# bronchodilation = settings: in vivo
# PDE4B mutant enzyme = settings: alanine for aspartate in the catalytic region
# canine tracheal PDE4 = settings: at 100 nM
# [2] = in vivo
# [3] = system: lipopolysaccharide-induced bowel erythrocyte extravasation; settings: rats; for lipopolysaccharide-induced bowel erythrocyte extravasation: pretreatment i.p. 3×
# human PDE4B2B = human PDE4B2B (Homo sapiens, UniProt Q07343)
# human PDE4B2B, sequence (Q07343 1-564 isoform Q07343-2): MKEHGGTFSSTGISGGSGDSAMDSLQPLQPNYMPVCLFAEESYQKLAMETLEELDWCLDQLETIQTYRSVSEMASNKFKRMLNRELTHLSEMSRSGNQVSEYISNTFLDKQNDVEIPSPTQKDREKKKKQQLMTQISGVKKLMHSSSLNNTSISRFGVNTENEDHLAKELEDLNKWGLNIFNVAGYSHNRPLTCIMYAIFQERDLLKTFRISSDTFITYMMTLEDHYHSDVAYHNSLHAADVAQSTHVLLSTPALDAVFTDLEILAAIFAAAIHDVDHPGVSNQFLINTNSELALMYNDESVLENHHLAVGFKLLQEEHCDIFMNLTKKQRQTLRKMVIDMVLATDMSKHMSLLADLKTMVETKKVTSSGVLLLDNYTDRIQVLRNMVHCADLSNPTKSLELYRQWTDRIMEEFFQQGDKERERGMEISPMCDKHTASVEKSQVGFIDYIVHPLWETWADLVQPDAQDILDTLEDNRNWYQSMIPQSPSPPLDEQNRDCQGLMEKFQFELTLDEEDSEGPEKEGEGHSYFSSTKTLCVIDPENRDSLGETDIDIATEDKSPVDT
# 5-lipoxygenase [4] = settings: a number of species
# [5] = system: dextran sulfate induced colitis; settings: rat
# PDE4D = PDE4D (Homo sapiens, UniProt Q08499)
# PDE4D, sequence (Q08499 whole entry, species assumed): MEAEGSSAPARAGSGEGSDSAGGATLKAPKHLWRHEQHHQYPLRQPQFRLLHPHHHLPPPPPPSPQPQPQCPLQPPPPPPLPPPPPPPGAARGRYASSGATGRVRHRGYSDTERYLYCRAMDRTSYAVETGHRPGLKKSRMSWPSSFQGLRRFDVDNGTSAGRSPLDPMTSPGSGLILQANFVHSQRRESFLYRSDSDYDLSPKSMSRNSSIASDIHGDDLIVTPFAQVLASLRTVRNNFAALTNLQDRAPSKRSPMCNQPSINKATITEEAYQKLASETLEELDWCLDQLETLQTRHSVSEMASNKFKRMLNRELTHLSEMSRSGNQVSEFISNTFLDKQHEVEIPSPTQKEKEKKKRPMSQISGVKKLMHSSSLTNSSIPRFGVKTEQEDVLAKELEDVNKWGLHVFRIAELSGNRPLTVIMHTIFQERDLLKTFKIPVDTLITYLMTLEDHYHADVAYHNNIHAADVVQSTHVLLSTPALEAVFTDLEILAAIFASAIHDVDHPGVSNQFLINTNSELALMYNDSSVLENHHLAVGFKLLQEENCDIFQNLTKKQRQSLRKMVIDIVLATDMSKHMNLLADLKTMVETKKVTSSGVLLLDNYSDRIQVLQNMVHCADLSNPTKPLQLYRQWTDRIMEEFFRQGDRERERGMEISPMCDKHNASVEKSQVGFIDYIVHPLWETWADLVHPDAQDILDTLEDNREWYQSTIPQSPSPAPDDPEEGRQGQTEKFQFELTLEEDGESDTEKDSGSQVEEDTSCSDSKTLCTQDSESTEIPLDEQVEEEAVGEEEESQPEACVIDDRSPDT
# rheumatoid arthritis = system: rheumatoid arthritis; set-up: dose or concentration left out as unconfirmed; settings: 35 patients
# SCW-induced arthritis = settings: in vivo
# [6] = system: LPS-stimulated ex vivo TNF release and PHA induced lymphocyte proliferation; settings: oral dose of 300 mg
# bone loss = settings: serial oral administrations
# [7] = system: lipopolysaccharide-induced mesenteric blood flow fall; settings: dogs
# [8] = system: mineralized nodule formation and osteoclast-like cell formation
# psoriatic lesions = settings: in vivo
# [9] = system: antigen-induced bronchospasm; settings: rat
# [10] = system: FEV1 and forced vital capacity
# [11] = system: collagen induced arthritis
# [12] = system: experimental allergic encephalomyelitis; settings: marmoset
# [13] = system: T-cell mediated hepatic failure
# 5-lipoxygenase [14] = settings: in vivo
compound,measurement,setting,value
Cc1[nH]c(=O)c(C#N)cc1-c1ccncc1 [milrinone],mean pulmonary artery pressure,[1],decreases
same,adverse events,bronchodilation,tachycardia and hypotension
same,bronchodilation,bronchodilation,short-lived bronchodilation
same,protection against induced bronchoconstriction,bronchodilation,slight degree of protection
same,relaxant activities of isoproterenol and forskolin,pulmonary artery rings,same effect
COc1ccc(CC2CNC(=O)N2)cc1OC1CCCC1 (centres unmarked) [Ro-20-1724],inhibition of mutant PDE4B,PDE4B mutant enzyme,lose potency
COc1ccc(C(=O)Cc2c(Cl)cncc2Cl)c2c1OCCCCO2 [Formula (0.0.49)],inhibition of canine tracheal PDE4,canine tracheal PDE4,almost complete inhibition
"Nc1nc2c([nH]1)c(=O)n(CC1CC1)c(=O)n2CC1CC1 [BRL-61,063]",emesis / nausea and vomiting,[2],nausea and vomiting
CC(=O)CCCCn1c(=O)c2c(ncn2C)n(C)c1=O [pentoxifylline],lipopolysaccharide-induced bowel erythrocyte extravasation,[3],reduces
"COC(=O)N1C[C@H](c2ccc(OC)c(OC3CCCC3)c2)[C@@](C)(C(C)=O)C1 (racemic) [Formula (0.0.61), (R,R)-(+/−)-methyl-3-acetyl-4-[3-(cyclopentyloxy)-4-methoxyphenyl]-3-methyl-1-pyrrolidine carboxylate]",affinity to the catalytic and the HARB sites,human PDE4B2B,equal affinity
COC1(c2cc(F)cc(OCc3ccc4c(ccc(=O)n4C)c3)c2)CCOCC1 [ZD-2138],oral activity,5-lipoxygenase [4],highly active orally
CCCn1c(=O)c2[nH]cnc2n(-c2ccc(Cl)cc2)c1=O [LAS31025],effects in dextran sulfate induced colitis (bleeding and inflammatory markers),[5],beneficial effects comparable to prednisolone
"O=c1c2cccnc2n(-c2cccc([N+](=O)[O-])c2)c(=O)n1Cc1ccncc1 [RS-25,344]",potency against PDE4 subtypes,PDE4D,more potent against PDE4D
COc1cc2c(cc1OC)[C@@H]1CN(C)CC[C@@H]1N=C2c1ccc(NC(C)=O)cc1 [benafentrine],bronchodilation,bronchodilation,bronchodilation only when administered by inhalation
CSc1ccc(C(=O)c2[nH]c(=O)[nH]c2C)cc1 [enoximone],mean pulmonary artery pressure,[1],decreases
COc1ccc(C(=O)Nc2c(Cl)cncc2Cl)cc1OC1CCCC1 [RP73401],"clinical improvement, C-reactive protein and IL-6 serum levels",rheumatoid arthritis,positive trend towards clinical improvement
same,"amelioration of disease (joint destruction, synovitis, fibrosis)",SCW-induced arthritis,significant amelioration of disease
"O=c1c2cccnc2n(-c2cccc([N+](=O)[O-])c2)c(=O)n1Cc1ccncc1 [RS-23,544]",emesis / nausea and vomiting,[2],elicit emesis
CCNc1ncn(Cc2ccc(OC)c(OC3CCCC3)c2)c2nc(C(C)C)nc1-2 [Example V-11294A],reducing TNF levels and lymphocyte proliferation,[6],effective
CCCCn1c(=O)c2c(ncn2CC(C)=O)n(CCCC)c1=O [debufylline],lipopolysaccharide-induced bowel erythrocyte extravasation,[3],reduces
CCCn1c(=O)c2c(C)nc(CC)n2c2nc(OC)ccc21 [Example D-22888],rhinorrhea,rhinorrhea; antigen-challenged pig,inhibit rhinorrhea
same,anti-allergic effect,"rhinorrhea; pig, in vivo",strong anti-allergic affect
CCCCn1c(=O)c2c(ncn2CC(C)=O)n(CCCC)c1=O [denbufylline],bone mineral density of femurs,bone loss,inhibit the decrease in the bone mineral density
same,lipopolysaccharide induced intestinal hypoperfusion,[7],attenuated
same,number of mineralized nodules,[8],increase in the number of mineralized nodules
same,lipopolysaccharide induced erythrocyte extravasation,[3],attenuated
"COc1ccc(C(=O)Nc2c(Cl)cncc2Cl)cc1OC1CCCC1 [RP-73,401]",emesis / nausea and vomiting,[2],elicit emesis
same,inhibition of mutant PDE4B,PDE4B mutant enzyme,lose potency
Clc1nc2c(N3CCCC3)nc(N3CCNCC3)nc2nc1NCc1ccccc1 [Formula (0.0.55)],inhibition of the growth of tumor cells,tumor cells,micromolar concentrations
CCCCOc1cc(CC2CNC(=O)N2)ccc1OC (centres unmarked) [Ro 20-1724],adverse systemic or cutaneous effects,psoriatic lesions,without adverse systemic or cutaneous effects
"COc1ccc(C2CNC(=O)NC2)cc1O[C@H]1C[C@@H]2CC[C@H]1C2 [CP-80,633]",emesis / nausea and vomiting,[2],elicit emesis
COc1ccc(C(=O)Nc2c(C)noc2C)cc1OC1CCCC1 [RPR-132294],inhibition of antigen-induced bronchospasm,[9],activity
"COc1ccc([C@]2(C#N)CC[C@@H](C(=O)O)CC2)cc1OC1CCCC1 [SB-207,499]",FEV and forced vital capacity (FVC),[10]; 15 mg twice a day for six weeks,increrases
same,FEV1,"[10]; four week trial, six week study, 15 mg twice a day",improved FEV1
COc1ccc(C2CNC(=O)C2)cc1OC1CCCC1 (centres unmarked) [rolipram],lipopolysaccharide induced intestinal hypoperfusion,[7],attenuated
same,stimulation of acid secretion,gastric parietal cells,very potent stimulator
same,development of the disease,[11]; 3 mg/kg twice daily when arthritis was apparent,progression of severity was halted
same,TNF-α and IFN-γ mRNA expression in regional lymph nodes,"[11]; rat, in vivo",strong down-regulation
same,inhibition of mutant PDE4B,PDE4B mutant enzyme,critical for inhibition
same,clinical signs and MRI abnormalities,[12],suppress the appearance of clinical signs
same,effects in dextran sulfate induced colitis (bleeding and inflammatory markers),[5],beneficial effects comparable to prednisolone
same,relaxant activities of isoproterenol and forskolin,pulmonary artery rings,potentiates
same,lipopolysaccharide induced erythrocyte extravasation,[3],attenuated
same,lipopolysaccharide-induced bowel erythrocyte extravasation,[3],reduces
same,"plasma activities of ALT, AST and SDH","[13]; 0.1 to 10 mg/kg i.p., mice",dose-dependently inhibited
same,concanavalin A-induced IL-4 release,"[13]; mouse, in vivo",suppress
C[C@H](C#Cc1ccc(Oc2ccc(F)cc2)o1)N(O)C(N)=O [Abbott-79175],duration of action,5-lipoxygenase [14],longer duration of action than zileuton
